Data reported in ChEMBL document CHEMBL5154925, “Design and Optimization of Thienopyrimidine Derivatives as Potent and Selective PI3Kδ Inhibitors for the Treatment of B-Cell Malignancies” (J Med Chem, 2022).
Converted amounts (≈) assume the structure as drawn. The source made the active and inactive calls. No cut-off for these calls is given here.

Tests used:
[1] = tested on: Pfeiffer; assay: Induction of apoptosis in human Pfeiffer cells assessed as viable […] cells at 10 uM incubated for 48 hrs by annexin V-FITC staining based flow cytometry (reference value: 81.14 %); assay type: functional
[2] = biological target: Phosphatidylinositol 4,5-bisphosphate 3-kinase catalytic subunit alpha isoform (Homo sapiens, UniProt P42336); assay: Inhibition of PI3Kalpha (unknown origin) using PIP2 as substrate measured after 1 hr in presence of ATP by ADP-glo luminescence assay
Chain of Phosphatidylinositol 4,5-bisphosphate 3-kinase catalytic subunit alpha isoform (Homo sapiens, UniProt P42336) (P42336 whole entry, canonical isoform): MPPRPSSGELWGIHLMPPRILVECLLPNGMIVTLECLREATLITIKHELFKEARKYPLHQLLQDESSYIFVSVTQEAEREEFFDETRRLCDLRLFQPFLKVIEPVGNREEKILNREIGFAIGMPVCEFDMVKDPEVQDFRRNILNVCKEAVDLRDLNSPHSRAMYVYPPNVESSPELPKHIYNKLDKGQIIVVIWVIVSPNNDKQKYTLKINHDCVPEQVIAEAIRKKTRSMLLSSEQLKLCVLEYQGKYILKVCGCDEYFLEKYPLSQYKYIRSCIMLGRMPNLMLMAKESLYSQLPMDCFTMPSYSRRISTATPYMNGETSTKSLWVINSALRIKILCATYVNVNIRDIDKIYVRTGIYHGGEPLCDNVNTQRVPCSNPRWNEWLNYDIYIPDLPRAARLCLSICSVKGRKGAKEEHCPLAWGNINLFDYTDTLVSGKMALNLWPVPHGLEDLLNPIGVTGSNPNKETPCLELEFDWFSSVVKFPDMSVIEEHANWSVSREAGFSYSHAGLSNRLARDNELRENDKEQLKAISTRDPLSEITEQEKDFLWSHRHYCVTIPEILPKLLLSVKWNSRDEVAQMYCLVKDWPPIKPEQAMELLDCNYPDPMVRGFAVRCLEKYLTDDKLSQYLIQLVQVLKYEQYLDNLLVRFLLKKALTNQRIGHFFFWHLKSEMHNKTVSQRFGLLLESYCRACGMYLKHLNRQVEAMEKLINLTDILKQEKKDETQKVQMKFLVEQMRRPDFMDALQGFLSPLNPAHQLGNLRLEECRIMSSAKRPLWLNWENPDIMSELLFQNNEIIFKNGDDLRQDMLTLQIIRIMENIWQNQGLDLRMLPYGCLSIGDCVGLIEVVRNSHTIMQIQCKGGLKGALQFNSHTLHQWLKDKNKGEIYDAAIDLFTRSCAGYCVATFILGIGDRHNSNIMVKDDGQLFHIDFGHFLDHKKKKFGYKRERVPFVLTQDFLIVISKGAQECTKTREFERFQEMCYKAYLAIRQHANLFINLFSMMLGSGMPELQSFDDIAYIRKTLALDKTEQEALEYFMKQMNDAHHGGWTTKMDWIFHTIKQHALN

[3] = tested on: Pfeiffer; assay: Induction of apoptosis in human Pfeiffer cells assessed as late apoptotic cells at 10 uM incubated for 48 hrs by annexin V-FITC staining based flow cytometry (reference value: 7.87 %); assay type: functional
[4] = tested on: Pfeiffer; assay: Induction of apoptosis in human Pfeiffer cells assessed as early apoptotic cells at 2 uM incubated for 48 hrs by annexin V-FITC staining based flow cytometry (reference value: 4.16 %); assay type: functional
[5] = biological target: Serine/threonine-protein kinase mTOR (Homo sapiens, UniProt P42345); assay: Inhibition of mTOR (unknown origin)
[6] = biological target: Phosphatidylinositol 4,5-bisphosphate 3-kinase catalytic subunit alpha isoform (Mus musculus, UniProt P42337); assay: Inhibition of PI3Kalpha in IGF-1 stimulated mouse C2C12 cells incubated for 10 mins by AlphaLISA assay; assay type: cell-based
Chain of Phosphatidylinositol 4,5-bisphosphate 3-kinase catalytic subunit alpha isoform (Mus musculus, UniProt P42337) (P42337 whole entry, canonical isoform): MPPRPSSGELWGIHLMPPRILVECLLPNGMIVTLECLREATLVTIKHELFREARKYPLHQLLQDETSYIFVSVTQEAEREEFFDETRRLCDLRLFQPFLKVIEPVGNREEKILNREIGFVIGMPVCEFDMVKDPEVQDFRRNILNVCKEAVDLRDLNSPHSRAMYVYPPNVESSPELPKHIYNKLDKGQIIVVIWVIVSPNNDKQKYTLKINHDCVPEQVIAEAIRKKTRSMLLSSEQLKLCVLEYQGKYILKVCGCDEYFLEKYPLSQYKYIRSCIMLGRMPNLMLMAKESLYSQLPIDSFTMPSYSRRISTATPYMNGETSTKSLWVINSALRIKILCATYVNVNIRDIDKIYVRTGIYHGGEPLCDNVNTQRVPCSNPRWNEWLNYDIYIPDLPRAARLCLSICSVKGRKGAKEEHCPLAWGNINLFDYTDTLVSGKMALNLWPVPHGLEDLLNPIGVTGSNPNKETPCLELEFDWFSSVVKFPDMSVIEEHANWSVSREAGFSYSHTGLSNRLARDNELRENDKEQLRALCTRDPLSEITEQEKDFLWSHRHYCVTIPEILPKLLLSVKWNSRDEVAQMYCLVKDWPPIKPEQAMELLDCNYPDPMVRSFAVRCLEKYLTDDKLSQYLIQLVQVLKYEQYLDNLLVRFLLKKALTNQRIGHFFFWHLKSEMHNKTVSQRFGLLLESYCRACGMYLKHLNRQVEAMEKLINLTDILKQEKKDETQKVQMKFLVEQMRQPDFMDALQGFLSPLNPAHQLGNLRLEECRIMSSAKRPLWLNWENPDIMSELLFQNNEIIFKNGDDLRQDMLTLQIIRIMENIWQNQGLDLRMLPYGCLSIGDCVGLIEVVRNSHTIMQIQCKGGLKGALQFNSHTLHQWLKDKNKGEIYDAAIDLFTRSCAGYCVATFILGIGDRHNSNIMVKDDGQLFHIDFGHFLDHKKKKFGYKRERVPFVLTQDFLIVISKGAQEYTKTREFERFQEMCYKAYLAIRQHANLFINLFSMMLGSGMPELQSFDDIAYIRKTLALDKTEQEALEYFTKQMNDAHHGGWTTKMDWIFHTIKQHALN

[7] = tested on: Pfeiffer; assay: Inhibition of P13K signaling pathway in human Pfeiffer cells assessed as reduction in […] incubated for 4 hrs by Western blot analysis; assay type: cell-based; settings: dose 2-50 µM, DDE = dose-dependent effect
[8] = AUC (0 to infinity) in ICR mouse at 30 mg/kg, po measured upto 24 hrs by LC-MS/MS analysis; assay type: ADME, organism-based; set-up: dose 30 mg/kg, time < 24 hrs, route po; settings: in vivo
[9] = Solubility of the compound in PBS; assay type: physicochemical
[10] = tested on: Pfeiffer; assay: Induction of apoptosis in human Pfeiffer cells assessed as necrotic cells at 2 uM incubated for 48 hrs by annexin V-FITC staining based flow cytometry (reference value: 6.62 %); assay type: functional
[11] = tested on: Pfeiffer; assay: Antitumour activity against human Pfeiffer cells xenografted in nude mouse assessed as reduction in Ki67 expression in tumor at 5 mg/kg, ip BID for 21 days by immunohistochemical analysis; assay type: functional, organism-based; settings: time 21.0 day
[12] = tested on: Pfeiffer; assay: Induction of cell cycle arrest in human Pfeiffer cells assessed as accumulation at G0/G1 phase at 2 to 50 uM after 24 hrs by propidium iodide and RNAase staining based flow cytometric analysis; assay type: functional; settings: dose 2-50 µM
[13] = tested on: Rec1; assay: Antiproliferative activity against human REC1 cells assessed as cell growth inhibition incubated for 96 hrs by cell titer glo assay; assay type: functional, cell-based; settings: Rec1, 96 h
[14] = tested on: SU-DHL-6; assay: Induction of apoptosis in human SU-DHL-6 cells assessed as apoptotic rate incubated for 48 hrs by annexin V-FITC staining based flow cytometry; assay type: functional, cell-based; settings: dose 2-50 µM, DDE = dose-dependent effect
[15] = tested on: Pfeiffer; assay: Antiproliferative activity against human Pfeiffer cells assessed as cell growth inhibition incubated for 96 hrs by cell titer glo assay; assay type: functional, cell-based
[16] = tested on: B-cell; assay: Inhibition of PI3Kdelta dependent mouse B-cell activation assessed as reduction in ratio of CD86 and B220 level at 0.001 to 0.1 uM stimulated with IgM for 1 hr prior to compound addition and measured after 24 hrs by flow cytometry analysis; assay type: functional, cell-based; settings: dose 0.001-0.1 µM, time 25.0 hrs
[17] = Apparent volume of distribution in ICR mouse at 3 mg/kg, iv measured upto 24 hrs by LC-MS/MS analysis; assay type: ADME, organism-based; settings: in vivo, read-out: Vz
[18] = tested on: Pfeiffer; assay: Induction of apoptosis in human Pfeiffer cells assessed as late apoptotic cells at 50 uM incubated for 48 hrs by annexin V-FITC staining based flow cytometry (reference value: 7.87 %); assay type: functional
[19] = Solubility of the compound in FaSSIF; assay type: physicochemical
[20] = biological target: Ribosomal protein S6 kinase alpha-3 (Homo sapiens) (UniProt P51812); assay: Inhibition of wild type […] human RSK2 (M1 to D394 residues) expressed in mammalian expression system assessed as residual activity at 10 uM relative to control
Chain of Ribosomal protein S6 kinase alpha-3 (Homo sapiens) (P51812 whole entry, the tested form may be a part): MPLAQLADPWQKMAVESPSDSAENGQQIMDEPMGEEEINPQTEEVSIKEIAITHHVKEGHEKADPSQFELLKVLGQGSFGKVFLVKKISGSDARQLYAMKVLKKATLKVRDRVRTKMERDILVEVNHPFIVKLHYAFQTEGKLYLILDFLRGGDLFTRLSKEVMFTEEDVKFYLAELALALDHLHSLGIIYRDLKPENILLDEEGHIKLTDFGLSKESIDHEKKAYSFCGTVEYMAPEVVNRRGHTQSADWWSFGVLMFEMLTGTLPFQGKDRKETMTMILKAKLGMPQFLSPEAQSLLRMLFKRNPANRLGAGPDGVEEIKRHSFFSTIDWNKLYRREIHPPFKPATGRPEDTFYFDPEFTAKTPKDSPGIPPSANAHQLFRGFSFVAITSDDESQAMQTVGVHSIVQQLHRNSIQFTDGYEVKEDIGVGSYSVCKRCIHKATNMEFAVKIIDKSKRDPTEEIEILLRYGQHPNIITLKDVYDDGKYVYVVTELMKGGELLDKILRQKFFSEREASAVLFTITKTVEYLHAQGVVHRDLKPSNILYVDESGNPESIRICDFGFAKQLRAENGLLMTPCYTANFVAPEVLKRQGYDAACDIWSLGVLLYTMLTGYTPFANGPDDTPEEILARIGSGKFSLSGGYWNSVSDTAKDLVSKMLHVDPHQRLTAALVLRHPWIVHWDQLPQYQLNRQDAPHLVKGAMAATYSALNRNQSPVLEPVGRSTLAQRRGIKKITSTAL

[21] = tested on: Z-138; assay: Antiproliferative activity against human Z138 cells assessed as cell growth inhibition incubated for 96 hrs by cell titer glo assay; assay type: functional, cell-based; settings: Z-138, 96 h
[22] = Cmax in ICR mouse at 3 mg/kg, iv measured upto 24 hrs by LC-MS/MS analysis; assay type: ADME, organism-based; set-up: time < 24 hrs, dose 3 mg/kg, route iv; settings: in vivo
[23] = tested on: Pfeiffer; assay: Induction of apoptosis in human Pfeiffer cells assessed as viable […] cells at 2 uM incubated for 48 hrs by annexin V-FITC staining based flow cytometry (reference value: 81.14 %); assay type: functional
[24] = tested on: SUD4; assay: Antiproliferative activity against human SU-DHL-4 cells assessed as cell growth inhibition incubated for 96 hrs by cell titer glo assay; assay type: functional, cell-based; settings: SU-DHL-4, 96 h
[25] = tested on: JeKo-1; assay: Antiproliferative activity against human JeKo-1 cells assessed as cell growth inhibition incubated for 96 hrs by cell titer glo assay; assay type: functional, cell-based; settings: JeKo-1, 96 h
[26] = tested on: SU-DHL-6; assay: Inhibition of P13K signaling pathway in human SU-DHL-6 cells assessed as reduction in […] incubated for 4 hrs by Western blot analysis; assay type: cell-based; settings: dose 2-50 µM, DDE = dose-dependent effect
[27] = Toxicity in nude mouse xenografted with human Pfeiffer cells assessed as effect on body weight at 5 mg/kg, ip BID for 21 days and measured twice weekly; assay type: organism-based; settings: in vivo, 504 h, time 21 day
[28] = biological target: Phosphatidylinositol 4,5-bisphosphate 3-kinase catalytic subunit beta isoform (Homo sapiens, UniProt P42338); assay: Inhibition of PI3Kbeta in LPA stimulated human PC-3 cells incubated for 10 mins by AlphaLISA assay; assay type: cell-based
Chain of Phosphatidylinositol 4,5-bisphosphate 3-kinase catalytic subunit beta isoform (P42338 whole entry, canonical isoform): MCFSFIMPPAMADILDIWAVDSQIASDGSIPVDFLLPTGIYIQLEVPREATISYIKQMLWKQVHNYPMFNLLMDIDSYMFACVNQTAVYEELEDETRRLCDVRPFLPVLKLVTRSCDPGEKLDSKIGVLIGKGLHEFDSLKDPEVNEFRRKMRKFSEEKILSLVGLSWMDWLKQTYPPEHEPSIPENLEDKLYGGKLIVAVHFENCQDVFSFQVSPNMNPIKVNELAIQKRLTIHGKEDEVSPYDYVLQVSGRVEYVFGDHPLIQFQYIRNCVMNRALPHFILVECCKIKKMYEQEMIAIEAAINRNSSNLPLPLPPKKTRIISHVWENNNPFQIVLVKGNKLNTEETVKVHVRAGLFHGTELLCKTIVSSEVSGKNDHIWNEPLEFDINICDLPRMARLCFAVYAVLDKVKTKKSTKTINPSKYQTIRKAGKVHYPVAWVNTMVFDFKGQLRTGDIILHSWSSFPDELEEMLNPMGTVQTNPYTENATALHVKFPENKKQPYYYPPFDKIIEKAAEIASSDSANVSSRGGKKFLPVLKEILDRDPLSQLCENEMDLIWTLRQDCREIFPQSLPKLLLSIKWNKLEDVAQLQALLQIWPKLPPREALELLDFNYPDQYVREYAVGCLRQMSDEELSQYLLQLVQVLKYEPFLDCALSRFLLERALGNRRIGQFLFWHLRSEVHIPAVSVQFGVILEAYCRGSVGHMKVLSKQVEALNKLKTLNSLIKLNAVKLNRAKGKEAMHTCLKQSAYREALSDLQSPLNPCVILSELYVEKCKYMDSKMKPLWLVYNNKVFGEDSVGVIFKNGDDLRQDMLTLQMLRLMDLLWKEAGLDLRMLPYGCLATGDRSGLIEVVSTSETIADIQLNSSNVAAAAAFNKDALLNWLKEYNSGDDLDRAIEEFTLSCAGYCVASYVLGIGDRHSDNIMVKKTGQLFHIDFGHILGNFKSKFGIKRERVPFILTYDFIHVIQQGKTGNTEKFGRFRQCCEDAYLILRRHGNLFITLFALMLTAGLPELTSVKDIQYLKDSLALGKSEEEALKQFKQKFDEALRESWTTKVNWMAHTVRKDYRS

[29] = biological target: Phosphatidylinositol 4,5-bisphosphate 3-kinase catalytic subunit gamma isoform (Mus musculus, UniProt Q9JHG7); assay: Inhibition of PI3Kgamma in C5a stimulated mouse RAW264.7 cells incubated for 10 mins by AlphaLisa assay; assay type: cell-based
Chain of Phosphatidylinositol 4,5-bisphosphate 3-kinase catalytic subunit gamma isoform (Q9JHG7 whole entry, canonical isoform): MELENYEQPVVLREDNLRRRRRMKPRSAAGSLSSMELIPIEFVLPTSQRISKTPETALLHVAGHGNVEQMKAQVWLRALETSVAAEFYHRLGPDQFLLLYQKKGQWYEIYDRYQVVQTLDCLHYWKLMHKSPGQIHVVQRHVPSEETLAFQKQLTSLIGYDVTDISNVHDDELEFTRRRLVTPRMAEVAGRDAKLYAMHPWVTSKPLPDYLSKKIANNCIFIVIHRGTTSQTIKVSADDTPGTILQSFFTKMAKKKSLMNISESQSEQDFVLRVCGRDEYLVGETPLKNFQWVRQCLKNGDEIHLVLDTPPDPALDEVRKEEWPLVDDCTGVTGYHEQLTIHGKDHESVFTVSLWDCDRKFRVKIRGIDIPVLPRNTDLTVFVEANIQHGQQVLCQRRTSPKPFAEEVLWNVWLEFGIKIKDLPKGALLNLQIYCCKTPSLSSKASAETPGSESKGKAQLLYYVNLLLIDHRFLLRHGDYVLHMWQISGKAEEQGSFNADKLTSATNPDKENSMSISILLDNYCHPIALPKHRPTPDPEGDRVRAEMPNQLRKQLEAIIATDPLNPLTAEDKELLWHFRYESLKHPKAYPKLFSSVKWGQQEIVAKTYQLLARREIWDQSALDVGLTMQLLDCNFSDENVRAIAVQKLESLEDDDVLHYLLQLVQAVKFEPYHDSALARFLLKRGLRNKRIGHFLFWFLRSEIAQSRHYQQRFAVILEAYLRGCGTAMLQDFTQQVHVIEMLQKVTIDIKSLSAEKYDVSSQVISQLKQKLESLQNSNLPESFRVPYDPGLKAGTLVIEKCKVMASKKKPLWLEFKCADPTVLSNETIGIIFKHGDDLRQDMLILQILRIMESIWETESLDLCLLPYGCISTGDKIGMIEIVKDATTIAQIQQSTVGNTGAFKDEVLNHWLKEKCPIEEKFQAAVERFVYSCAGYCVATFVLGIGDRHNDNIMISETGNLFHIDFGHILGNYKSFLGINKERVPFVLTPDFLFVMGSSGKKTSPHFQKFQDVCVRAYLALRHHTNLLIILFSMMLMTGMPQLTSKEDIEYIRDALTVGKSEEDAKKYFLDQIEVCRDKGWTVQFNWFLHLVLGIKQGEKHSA

[30] = Half life in ICR mouse at 30 mg/kg, po measured upto 24 hrs by LC-MS/MS analysis; assay type: ADME, organism-based; settings: in vivo
[31] = tested on: Pfeiffer; assay: Induction of apoptosis in human Pfeiffer cells assessed as viable […] cells at 50 uM incubated for 48 hrs by annexin V-FITC staining based flow cytometry (reference value: 81.14 %); assay type: functional
[32] = tested on: Pfeiffer; assay: Induction of apoptosis in human Pfeiffer cells assessed as necrotic cells at 10 uM incubated for 48 hrs by annexin V-FITC staining based flow cytometry (reference value: 6.62 %); assay type: functional
[33] = Cmax in ICR mouse at 30 mg/kg, po measured upto 24 hrs by LC-MS/MS analysis; assay type: ADME, organism-based; set-up: time < 24 hrs, dose 30 mg/kg, route po; settings: in vivo
[34] = tested on: Pfeiffer; assay: Inhibition of P13K signaling pathway in human Pfeiffer cells assessed as reduction in AKT phosphorylation at S473 residue incubated for 4 hrs by Western blot analysis; assay type: cell-based; settings: dose 2-50 µM, DDE = dose-dependent effect
[35] = tested on: SU-DHL-6; assay: Inhibition of P13K signaling pathway in human SU-DHL-6 cells assessed as reduction in AKT phosphorylation at S473 residue incubated for 4 hrs by Western blot analysis; assay type: cell-based; settings: dose 2-50 µM, DDE = dose-dependent effect
[36] = Half life in ICR mouse at 3 mg/kg, iv measured upto 24 hrs by LC-MS/MS analysis; assay type: ADME, organism-based; settings: in vivo
[37] = AUC (0 to t) in ICR mouse at 3 mg/kg, iv measured upto 24 hrs by LC-MS/MS analysis; assay type: ADME, organism-based; set-up: time < 24 hrs, dose 3 mg/kg, route iv; settings: in vivo
[38] = tested on: Pfeiffer; assay: Antitumor activity against human Pfeiffer cells xenografted in nude mouse assessed as tumor growth inhibition at 5 mg/kg, ip BID for 21 days and measured twice weekly; assay type: functional; settings: 504 h, time 21 day, read-out: TGI

SMILES: CCC(=O)N1CC[C@H](Nc2ncnc3sc(-c4cnc(OC)c(OC)c4)cc23)C1
- Activity [1]: 65.34%
- IC50 [2]: 0.31 µM
- Activity [3]: 22.9%
- Activity [4]: 6.03%
- IC50 [5]: > 10 µM
- IC50 [6]: 50.2 µM
- inhibition [7]: Dde
- AUC(0-inf) [8]: 1030 ng·h/mL
- solubility [9]: 44.5 µM (≈ 18.4 µg/mL)
- Activity [10]: 5.01%
- Activity [11]: Active
- Activity [12]: Active
- IC50 [13]: 1.21 µM
- Activity [14]: Dde
- IC50 [15]: 0.58 µM
- inhibition [16]: Active
- Vd [17]: 5.49 L/kg
- Activity [18]: 43.33%
- solubility [19]: 102 µM (≈ 42.1 µg/mL)
- Activity [20]: 23%
- IC50 [21]: 7.05 µM
- Cmax [22]: 3190 ng/mL
- Activity [23]: 76.43%
- IC50 [24]: 3.75 µM
- IC50 [25]: 14.7 µM
- inhibition [26]: Dde
- Activity [27]: 10%
- IC50 [28]: 5.12 µM
- IC50 [29]: 8.06 µM
- half-life [30]: 0.89 h
- Activity [31]: 33.75%
- Activity [32]: 6.72%
- Cmax [33]: 372 ng/mL
- inhibition [34]: Dde
- inhibition [35]: Dde
- half-life [36]: 1.73 h
- AUC(0-t) at 24 h [37]: 1370 ng·h/mL
- inhibition in vivo at 5 mg/kg [38]: 69%
